Counter-ions that a name gives are not always drawn. Like-named read-outs stand apart in the source and are kept apart here. Square brackets hold non-standard residues; d marks the D form. Peptide text beside a SMILES is read from it. * marks the point of attachment. Sta = CC(C)C[C@H](N)[C@@H](O)CC(=O)O; Isovaleryl = CC(C)CC(=O)*
Columns and labels:
Type in all cases: cell-based, human
[1] = Drug library screen, cell viability (CellTiter-Glo); parameters: key to Cell viability, WT: % viability relative to DMSO solvent-treated cells; conditions: human; HCT116 ARID1A-WT; 10 μM for 5 days; relative to cells treated with solvent (DMSO); read-out: Cell viability, WT
Procedure: (§1) ARID1A-WT and ARID1A-KO HCT116 cancer cells were used for screening assays. […] Cell viability was assessed after 5 days using the CellTiter-Glo Luminescent Cell Viability Assay (Promega). Luminescence was measured using an Envision Multi-label plate reader (PerkinElmer). The luminescence reading was used to determine the cell viability relative to that of cells treated with solvent (DMSO). Candidate compounds were considered if viability of ARID1A-KO cells was less than […] was more than 80%.

ARID1A-KO HCT116 cells = test: as above; parameters: key to Cell viability, KO: % viability relative to DMSO solvent-treated cells; conditions: for viability at 10 µM: Homo sapiens, HCT-116, 120 h, read-out: Cell viability, KO
Procedure: as §1

ARID1A-WT HCT116 cells = test: as above; parameters: key to Cell viability, WT: % viability relative to DMSO solvent-treated cells
Procedure: as §1

[2] = HCT116 ARID1A-KO, 10 μM for 5 days, relative to cells treated with solvent (DMSO)
[3] = HCT116 ARID1A-WT, 10 μM for 5 days, relative to cells treated with solvent (DMSO)

Molecule | Cell viability, WT (ARID1A-WT HCT116 cells; [3]) | Cell viability, KO (ARID1A-KO HCT116 cells; [2]) | other results
CNC(=O)c1ccc(N2C(=S)N(c3ccc(C#N)c(C(F)(F)F)c3)C(=O)C2(C)C)cc1F [MDV3100] | – | – | viability at 5 days, 10 μM [1]: 88.8%; viability at 10 µM (ARID1A-KO HCT116 cells; [2]): 94.9%
CC1=NS(=O)(=O)c2cc(Cl)ccc2N1 [Diazoxide] | – | – | viability at 5 days, 10 μM [1]: 103%; viability at 10 µM (ARID1A-KO HCT116 cells; [2]): 115%
Cc1c(C)c2c(c(C)c1O)CCC(C)(COc1ccc(CC3SC(=O)NC3=O)cc1)O2 (stereo not drawn) [Troglitazone] | – | – | viability at 5 days, 10 μM [1]: 101%; viability at 10 µM (ARID1A-KO HCT116 cells; [2]): 94.7%
CC1=C(/C=C/C(C)=C/C=C/C(C)=C/C(=O)O)C(C)(C)CCC1 [tretinoin] | – | – | viability at 5 days, 10 μM [1]: 77.7%; viability at 10 µM (ARID1A-KO HCT116 cells; [2]): 96.3%
CC#C[C@]1(O)CC[C@H]2[C@@H]3CCC4=CC(=O)CCC4=C3[C@@H](c3ccc(N(C)C)cc3)C[C@@]21C [Mifepristone] | – | – | viability at 5 days, 10 μM [1]: 95.9%; viability at 10 µM (ARID1A-KO HCT116 cells; [2]): 85.3%
O=C(O)c1ccccc1Nc1ccccc1 [N-phenylanthranilic acid] | – | – | viability at 5 days, 10 μM [1]: 101%; viability at 10 µM (ARID1A-KO HCT116 cells; [2]): 118%
NC(=O)c1ccccc1 [Benzamide] | – | – | viability at 5 days, 10 μM [1]: 188%; viability at 10 µM (ARID1A-KO HCT116 cells; [2]): 134%
CC(=O)O[C@H]1C(=O)[C@@]2(C)[C@H]([C@H](OC(=O)c3ccccc3)[C@]3(O)C[C@H](OC(=O)[C@H](O)[C@@H](NC(=O)c4ccccc4)c4ccccc4)C(C)=C1C3(C)C)[C@]1(OC(C)=O)CO[C@@H]1C[C@@H]2O [Paclitaxel] | – | – | viability at 5 days, 10 μM [1]: 4.91%; viability at 10 µM (ARID1A-KO HCT116 cells; [2]): 6.42%
O=c1cc(-c2ccccc2)oc2cc(O)c(O)c(O)c12 [Baicalein] | – | – | viability at 5 days, 10 μM [1]: 94.6%; viability at 10 µM (ARID1A-KO HCT116 cells; [2]): 93.7%
CN(C)CCCN1c2ccccc2Sc2ccc(Cl)cc21 [chlorpromazine hydrochloride] | – | – | viability at 5 days, 10 μM [1]: 7.83%; viability at 10 µM (ARID1A-KO HCT116 cells; [2]): 15.6%
O=C1Cc2c([nH]c3ccc(Br)cc23)-c2ccccc2N1 [Kenpaullone] | – | – | viability at 5 days, 10 μM [1]: 66.2%; viability at 10 µM (ARID1A-KO HCT116 cells; [2]): 35%
C[C@]1(O)C[C@@H](c2nc(-c3ccc4ccc(-c5ccccc5)nc4c3)c3c(N)nccn32)C1 [OSI-906] | – | – | viability at 5 days, 10 μM [1]: 59.1%; viability at 10 µM (ARID1A-KO HCT116 cells; [2]): 79.1%
CC(C)C[C@H](NC(=O)[C@@H](O)[C@H](N)Cc1ccccc1)C(=O)O [Bestatin] | – | – | viability at 5 days, 10 μM [1]: 68.6%; viability at 10 µM (ARID1A-KO HCT116 cells; [2]): 66.2%
OC[C@H]1NC[C@H](O)[C@@H](O)[C@@H]1O [Deoxynojirimycin] | – | – | viability at 5 days, 10 μM [1]: 106%; viability at 10 µM (ARID1A-KO HCT116 cells; [2]): 121%
CNc1ccc2oc(C[C@H]3O[C@@]4(CC[C@H]3C)O[C@H]([C@H](C)C(=O)c3ccc[nH]3)[C@H](C)C[C@H]4C)nc2c1C(=O)O [A23187] | – | – | viability [1]: 6.25%; viability at 10 µM (ARID1A-KO HCT116 cells; [2]): 8.67%
NC1=N/C(=C2/CCNC(=O)c3[nH]ccc32)C(=O)N1 [Debromohymenialdisine (DBH), Debromohymenialdisine] | – | – | viability at 5 days, 10 μM [1]: 62.9%; viability at 10 µM (ARID1A-KO HCT116 cells; [2]): 72.2%
CC[C@H](C)C(=O)O[C@H]1C[C@@H](C)C=C2C=C[C@H](C)[C@H](CC[C@@H]3C[C@@H](O)CC(=O)O3)[C@H]21 [Lovastatin] | – | – | viability at 5 days, 10 μM [1]: 132%; viability at 10 µM (ARID1A-KO HCT116 cells; [2]): 85.2%
CC(C)CC(=O)N[C@H](C(=O)N[C@H](C(=O)N[C@@H](CC(C)C)[C@@H](O)CC(=O)N[C@@H](C)C(=O)N[C@@H](CC(C)C)[C@@H](O)CC(=O)O)C(C)C)C(C)C [Pepstatin A] (Isovaleryl-VV[Sta]A[Sta]-OH) | 115.9467 | 126.4531 | –
CN(C)CCCn1cc(C2=C(c3c[nH]c4ccccc34)C(=O)NC2=O)c2ccccc21.Cl [Bisindolymaleimide I, HCl] | 8.077 | 6.106 | –

Molecule | Cell viability, WT (ARID1A-WT HCT116 cells; [3]) | Cell viability, KO (ARID1A-KO HCT116 cells; [2]) | other results
COC(=O)CNC(=O)C(=O)OC [Dimethyloxalylglycine] | 95.769 | 119.9436 | –
Bleomycin sulfate | 27.28 | 30.2 | –
Clc1ccccc1CNCC1CCC(CNCc2ccccc2Cl)CC1 (stereo not drawn) [AY 9944] | 31.41 | 50.15 | –
CCCC[C@@H](C)/C=C(C)/C=C(\C)C(=O)NC1=C[C@@](O)(/C=C/C=C/C=C/C(=O)NC2=C(O)CCC2=O)[C@@H]2O[C@@H]2C1=O [Manumycin A] | 61.22 | 52.57 | –
O=C(Nc1cccc2cccnc12)c1ccc(N2C(=O)[C@@H]3[C@H](C2=O)[C@@H]2C=C[C@H]3C2)cc1 [IWR-1-endo] | 76.34 | 75.98 | –
COc1cc2ncnc(Nc3cccc(Cl)c3)c2cc1OC [AG1478] | 149.2606 | 129.9442 | –
a-Amanitin | 8.977 | 10.21 | –
b-Rubromycin | 88.7 | 93.87 | –
CC(C)(C)n1nc(-c2ccc(Cl)cc2)c2c(N)ncnc21 [PP2] | 121.2434 | 149.4142 | –
CC(C)(c1ccc(OCC2CO2)cc1)c1ccc(OCC2CO2)cc1 (stereo not drawn) [BADGE] | 93.59 | 107.888 | –
Cc1ccc2nc(NC(=O)CSc3nc4c(c(=O)n3-c3ccccc3)SCC4)sc2c1 [IWP-2] | 78.56 | 90.8 | –
Nc1ncnc2nc(-c3ccc(N4CCOCC4)nc3)cc(-c3cccc(Br)c3)c12 [ABT-702] | 94.11 | 111.7532 | –
O=S(=O)(NCCNC/C=C/c1ccc(Br)cc1)c1cccc2cnccc12 [H-89] | 78.81 | 119.4541 | –
CC(C)(C)n1nc(-c2cccc3ccccc23)c2c(N)ncnc21 [PP1 analog] | 76.55 | 69.2339 | –
COc1ccc(Cn2ccc3ccc(C(=O)NO)cc32)cc1 [PCI-34051] | 71.67 | 72.3 | –
CC(C)[C@H](CO)Nc1nc(Nc2cccc(Cl)c2)c2ncn(C(C)C)c2n1 [Purvalanol A] | 51.32 | 33.47 | –
O=C1Nc2ccccc2C2(CCN(CCc3ccc(C(F)(F)F)cc3)CC2)O1 [RS 102895] | 37.34 | 47.58 | –
NC(=O)c1ccc2nc(-c3ccc(Oc4ccc(Cl)cc4)cc3)[nH]c2c1 [Chk2 inhibitor II] | 104.0524 | 139.2543 | –
Cc1ccc(NC(=O)c2cccc(N(C)C)c2)cc1NC(=O)c1ccc(O)cc1 [ZM 336372] | 121.6939 | 179.4192 | –

Molecule | Cell viability, WT (ARID1A-WT HCT116 cells; [3]) | Cell viability, KO (ARID1A-KO HCT116 cells; [2]) | other results
CC(C)C(C(=O)O)N1C(=O)/C(=C\c2ccc(Br)cc2)SC1=S (stereo not drawn) [BH3I-1] | 99.91 | 109.7951 | –
Cc1ccc(-c2cn3c4c(sc3n2)CCCC4)cc1 [Pifithrin-a (cyclic)] | 91.15 | 99.94 | –
O=c1cc(N2CCOCC2)oc2c(-c3ccccc3)cccc12 [LY294002] | 127.2893 | 119.3969 | –
CCCC[C@@H](C)[C@@H](OC(=O)C[C@@H](CC(=O)O)C(=O)O)[C@H](C[C@@H](C)C[C@H](O)CCCC[C@@H](O)C[C@H](O)[C@H](C)N)OC(=O)C[C@@H](CC(=O)O)C(=O)O [Fumonisin B1] | 87.23 | 83.33 | –
Valeryl salicylate | 169.5428 | 118.3391 | –
C[C@H]1CCC/C=C/[C@@H]2C[C@H](O)C[C@H]2[C@H](O)/C=C/C(=O)O1 [brefeldin A] | 1.838 | 4.578 | –
C=CCc1cccc(/C=N/NC(=O)CN2CCN(Cc3ccccc3)CC2)c1O [PAC-1] | 6.045 | 9.44 | –
Nc1nc(OCc2ccccc2)c2nc[nH]c2n1 [Benzylguanine] | – | – | Cell viability, WT (ARID1A-WT HCT116 cells): 88.84; Cell viability, KO (ARID1A-KO HCT116 cells): 105.1044
CCCCCCCCCCCCCCCCCCc1ccc(C(=O)/C=C/C(=O)O)cc1 [OBAA] | 199.8448 | 110.9715 | –
CC1CCN=C(N)S1.Cl (stereo not drawn) [AMT, HCl] | 171.2223 | 139.818 | –
Akt Inhibitor IV | 3.276 | 5.523 | –
CN([C@@H](Cc1ccc(OS(=O)(=O)c2cccc3cnccc23)cc1)C(=O)N1CCN(c2ccccc2)CC1)S(=O)(=O)c1cccc2cnccc12 [KN-62] | – | – | Cell viability, WT (ARID1A-WT HCT116 cells): 113.3229; Cell viability, KO (ARID1A-KO HCT116 cells): 131.0212
OCCn1cc(-c2cnc3nnn(Cc4ccc5ncccc5c4)c3n2)cn1 [PF-04217903] | 86.5829 | 93.9615 | –
CC(C)Cn1c(=O)n(C)c(=O)c2[nH]cnc21 [IBMX] | 159.7152 | 114.2526 | –
Brc1c(Br)c(Br)c2n[nH]nc2c1Br [TBB] | 187.1148 | 147.5332 | –
COc1ccc(C2=N[C@@H](c3ccc(Cl)cc3)[C@@H](c3ccc(Cl)cc3)N2C(=O)N2CCNC(=O)C2)c(OC(C)C)c1 [Nutlin-3] | 23.89 | 25.82 | –
CCOC(=O)[C@H]1O[C@@H]1C(=O)N[C@@H](CC(C)C)C(=O)NCCC(C)C [E-64d] | 100.8821 | 100.5678 | –
c1ccc2c(-c3cnn4cc(-c5ccc(N6CCNCC6)cc5)cnc34)ccnc2c1 [LDN193189] | 2.832 | 2.712 | –
MEK inhibitor I | 77.6 | 117.4589 | –

Reference: patent US20220087987A1, “A METHOD FOR TREATING SWI/SNF COMPLEX-DEFICIENT CANCERS COMPRISING GLUTATHIONE (GSH) METABOLIC PATHWAY INHIBITOR” (National Cancer Center, priority 2018, published 2022)
